Reference: US20220265549A1, “PHARMACEUTICAL COMPOSITION COMPRISING ENSIFENTRINE” (VERONA PHARMA PLC, priority 2019, published 2022)

Assays:
[1] = tested on: patients with COPD; test: Phase II clinical study, single dose part (FEV1); format: in vivo, human
Experimental: (§1) A 2-part, 37 patient, Phase II single and repeat dose clinical study with ensifentrine in patients with COPD was completed using DPI formulations 12, 13 and 14 (Table 6).
Ensifentrine doses of 0.15, 0.5, 1.5, and 3 mg provided dose-dependent improvements from baseline in peak Forced Expiratory Volume in one second (FEV1) (over 4 hours) of up to 333 mL compared with placebo (p<0.01 for 1.5 mg and 3 mg doses).

[2] = tested on: patients with COPD; test: Phase II clinical study, repeat dose crossover part (FEV1); format: in vivo, human; settings: for Improvement from baseline in peak FEV1 (over 4 hours) on Day 7 compared with placebo: DPI; for Improvement in morning trough FEV1 on Day 7 compared with placebo: twice daily over 7 days, dose not identified
Experimental: as §1
The second part of the study was a complete block crossover study using the same patients that were dosed in the first part of the study. Ensifentrine doses of 0.15 mg to 3 mg dosed twice daily over 7 days also provided dose-dependent, highly statistically significant and clinically meaningful improvements from baseline in peak FEV1 (over 4 hours) on Day 7 of 102, 175, 180, and 260 mL, respectively, compared with placebo (p≤0.0001 for all dose groups). The improvement in FEV1 was sustained over the 12 hour dosing interval as shown by clinically meaningful and statistically significant improvements in average FEV1 over 12 hours of up to 147 mL (p<0.05 for all dose groups) and in morning trough FEV1 on Day 7 of 98, 87, and 97 mL, respectively, compared with placebo (p≤0.001 for each dose).

[3] = Particle size distribution of materials (laser diffraction); format: physicochemical; settings: volume particle size distribution
Text: Particle sizes are described herein by reference to the Dv50 value, which is the median particle size for a volume distribution. Thus, half the volume of the particles have diameters of less than the Dv50 value and half the volume of the particles have diameters of greater than the Dv50 value. This is a well-known manner in which to describe particle size distributions. The parameters of Dv10 and Dv90 may also be used to characterise a particle size distribution of a sample. 10% of the volume of particles have a diameter of less than the Dv10 value. 90% of the volume of the particles have a diameter of less than the Dv90 value.
The technique used to measure the Dv50 (and Dv10 and Dv90) values as stated herein is typically laser diffraction. For instance, the coarse lactose particles typically have a particle size distribution with a Dv50 value of from 40 μm to 80 μm as measured by laser diffraction and the fine lactose particles have a particle size distribution with a Dv50 value of from 5 μm to 10 μm as measured by laser diffraction.
The particle size distribution of low aqueous solubility materials, for instance the ensifentrine particles, may be as measured by laser diffraction using a wet powder dispersion system. For instance, the particle size distribution can be measured by laser diffraction using a Malvern Spraytec in conjunction with a wet dispersion cell. Typically, the instrument parameters for the Malvern Spraytec are as follows: • particle—standard opaque particle; • refractive index Particle—1.50; • refractive index (imaginary)—0.50; • density of particle—1.00; • refractive index of dispersant—1.33; • controller unit—1000 RPM; • measurement type—timed; • initial sampling time—30 s; • obscuration—20%-30%; • dispersant—1% Polysorbate 20 in deionised water.
The particle size distribution of materials soluble in water, for instance lactose particles, may be as measured by laser diffraction using a dry powder dispersion system. For instance, the particle size distribution can be measured by laser diffraction using a Malvern or Sympatec dry dispersion cell. […]

Dv10 (μm) [3]: 0.5 μm | Dv50 (μm) [3]: 1.3 μm | Dv90 (μm) [3]: 3.6 μm
Structure (SMILES): COc1cc2c(cc1OC)-c1c/c(=N\c3c(C)cc(C)cc3C)n(CCNC(N)=O)c(=O)n1CC2 [Ensifentrine, 9,10-dimethoxy-2-(2,4,6-trimethylphenylimino)-3-(N-carbamoyl-2-aminoethyl)-3,4,6,7-tetrahydro-2H-pyrimido[6,1-a]isoquinolin-4-one]
Improvement from baseline in peak FEV1 (over 4 hours) compared with placebo ([1]; single doses of 0.15, 0.5, 1.5 and 3 mg by DPI, maximum across doses): up to 333 mL | Bronchodilatory effect ([1]; single doses up to 3 mg by DPI, over 12 hours, COPD patients): rapid, dose-dependent, and statistically significant bronchodilatory effect | Improvement in average FEV1 over 12 hours ([2]; 0.15 mg to 3 mg twice daily over 7 days, maximum across doses): up to 147 mL | Improvement from baseline in peak FEV1 (over 4 hours) on Day 7 compared with placebo ([2]; 0.15 mg twice daily over 7 days): 102 mL | Improvement from baseline in peak FEV1 (over 4 hours) on Day 7 compared with placebo ([2]; 0.5 mg twice daily over 7 days): 175 mL | Improvement from baseline in peak FEV1 (over 4 hours) on Day 7 compared with placebo ([2]; 1.5 mg twice daily over 7 days): 180 mL | Improvement from baseline in peak FEV1 (over 4 hours) on Day 7 compared with placebo ([2]; 3 mg twice daily over 7 days): 260 mL | Improvement in morning trough FEV1 on Day 7 compared with placebo ([2]; first of three listed values): 98 mL | Improvement in morning trough FEV1 on Day 7 compared with placebo ([2]; second of three listed values): 87 mL | Improvement in morning trough FEV1 on Day 7 compared with placebo ([2]; third of three listed values): 97 mL
